Measurements from ChEMBL document CHEMBL6083234, “Discovery of novel 1,4-dicarbonylthiosemicarbazides as DNA gyrase inhibitors for the treatment of MRSA infection” (Eur J Med Chem, 2024).
Converted amounts (≈) assume the structure as drawn.

Columns and labels:
[1] = molecular target: DNA gyrase (Staphylococcus aureus, UniProt P0A0K8+P20831); assay: Inhibition of Staphylococcus aureus DNA gyrase using supercoiled pBR322 as substrate preincubated for 1 hrs followed by proteinase K addition and measured after 30 mins by agarose gel electrophoresis; assay type: protein-complex assay
DNA gyrase, sequence (P0A0K8 whole entry): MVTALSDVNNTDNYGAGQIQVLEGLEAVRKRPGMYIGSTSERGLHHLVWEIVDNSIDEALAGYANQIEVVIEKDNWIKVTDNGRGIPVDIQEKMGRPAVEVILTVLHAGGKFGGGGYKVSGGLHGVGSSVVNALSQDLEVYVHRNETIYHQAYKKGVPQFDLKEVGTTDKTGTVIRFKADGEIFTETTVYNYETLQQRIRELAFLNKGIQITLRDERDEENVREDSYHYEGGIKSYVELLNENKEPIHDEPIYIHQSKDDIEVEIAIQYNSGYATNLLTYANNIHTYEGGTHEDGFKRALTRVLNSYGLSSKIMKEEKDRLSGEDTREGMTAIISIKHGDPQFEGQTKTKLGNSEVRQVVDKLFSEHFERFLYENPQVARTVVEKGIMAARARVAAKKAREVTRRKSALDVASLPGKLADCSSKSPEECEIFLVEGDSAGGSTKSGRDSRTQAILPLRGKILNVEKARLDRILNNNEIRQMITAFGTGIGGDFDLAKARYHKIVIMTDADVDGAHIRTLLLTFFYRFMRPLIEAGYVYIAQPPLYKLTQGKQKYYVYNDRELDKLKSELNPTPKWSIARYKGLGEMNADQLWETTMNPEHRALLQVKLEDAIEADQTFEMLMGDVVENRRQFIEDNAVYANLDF
DNA gyrase, sequence (P20831 whole entry): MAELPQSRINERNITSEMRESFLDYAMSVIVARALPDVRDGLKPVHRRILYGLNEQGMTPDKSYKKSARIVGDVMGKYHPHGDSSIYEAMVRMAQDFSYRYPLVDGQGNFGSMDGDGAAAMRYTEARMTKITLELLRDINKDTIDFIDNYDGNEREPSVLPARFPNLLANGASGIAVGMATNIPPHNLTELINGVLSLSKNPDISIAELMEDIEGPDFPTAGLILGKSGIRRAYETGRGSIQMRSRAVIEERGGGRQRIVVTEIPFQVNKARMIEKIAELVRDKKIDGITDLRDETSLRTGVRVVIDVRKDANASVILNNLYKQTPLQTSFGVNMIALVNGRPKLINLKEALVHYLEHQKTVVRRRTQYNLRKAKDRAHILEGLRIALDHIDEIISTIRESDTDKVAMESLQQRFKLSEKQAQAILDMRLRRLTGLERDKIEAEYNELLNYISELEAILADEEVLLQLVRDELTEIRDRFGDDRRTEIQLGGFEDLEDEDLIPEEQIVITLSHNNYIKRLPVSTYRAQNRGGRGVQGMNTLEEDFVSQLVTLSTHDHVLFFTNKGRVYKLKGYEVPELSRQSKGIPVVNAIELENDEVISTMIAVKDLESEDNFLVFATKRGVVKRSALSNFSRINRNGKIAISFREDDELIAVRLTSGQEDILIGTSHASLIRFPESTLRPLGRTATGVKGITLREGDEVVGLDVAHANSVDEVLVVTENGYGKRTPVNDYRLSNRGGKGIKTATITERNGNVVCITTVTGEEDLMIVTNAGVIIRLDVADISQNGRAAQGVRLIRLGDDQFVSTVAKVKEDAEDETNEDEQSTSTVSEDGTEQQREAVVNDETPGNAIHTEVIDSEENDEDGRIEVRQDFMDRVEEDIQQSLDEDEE

[2] = molecular target: Topoisomerase IV (Staphylococcus aureus, UniProt P0C1S7+P0C1U9); assay: Inhibition of Staphylococcus aureus DNA topoisomerase 4 using linear pBR322 as substrate preincubated for 10 mins followed by ATP addition and measured after 1 hrs ATP hydrolysis assay; assay type: protein-complex assay
Topoisomerase IV, sequence (P0C1U9 whole entry): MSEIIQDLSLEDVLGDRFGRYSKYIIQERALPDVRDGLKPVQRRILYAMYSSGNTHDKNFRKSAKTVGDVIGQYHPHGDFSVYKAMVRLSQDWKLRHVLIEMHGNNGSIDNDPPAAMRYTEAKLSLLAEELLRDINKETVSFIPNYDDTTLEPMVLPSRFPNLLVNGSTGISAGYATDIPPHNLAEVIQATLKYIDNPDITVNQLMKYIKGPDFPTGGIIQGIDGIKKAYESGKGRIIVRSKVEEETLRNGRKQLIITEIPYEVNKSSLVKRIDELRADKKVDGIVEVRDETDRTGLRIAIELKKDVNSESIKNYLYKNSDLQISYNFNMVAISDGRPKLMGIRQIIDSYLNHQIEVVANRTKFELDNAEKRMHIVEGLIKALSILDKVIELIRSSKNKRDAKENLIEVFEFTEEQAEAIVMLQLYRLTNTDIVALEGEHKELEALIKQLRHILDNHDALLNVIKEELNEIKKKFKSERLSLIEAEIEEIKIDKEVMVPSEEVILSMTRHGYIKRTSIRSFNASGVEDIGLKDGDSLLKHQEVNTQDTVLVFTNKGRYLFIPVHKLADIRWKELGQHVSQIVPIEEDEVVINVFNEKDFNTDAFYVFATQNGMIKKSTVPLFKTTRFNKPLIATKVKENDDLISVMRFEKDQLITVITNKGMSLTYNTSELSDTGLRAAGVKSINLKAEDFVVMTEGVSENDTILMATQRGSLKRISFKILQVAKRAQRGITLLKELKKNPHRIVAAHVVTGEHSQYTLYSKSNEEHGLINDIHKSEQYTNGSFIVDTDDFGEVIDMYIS
Topoisomerase IV, sequence (P0C1S7 whole entry): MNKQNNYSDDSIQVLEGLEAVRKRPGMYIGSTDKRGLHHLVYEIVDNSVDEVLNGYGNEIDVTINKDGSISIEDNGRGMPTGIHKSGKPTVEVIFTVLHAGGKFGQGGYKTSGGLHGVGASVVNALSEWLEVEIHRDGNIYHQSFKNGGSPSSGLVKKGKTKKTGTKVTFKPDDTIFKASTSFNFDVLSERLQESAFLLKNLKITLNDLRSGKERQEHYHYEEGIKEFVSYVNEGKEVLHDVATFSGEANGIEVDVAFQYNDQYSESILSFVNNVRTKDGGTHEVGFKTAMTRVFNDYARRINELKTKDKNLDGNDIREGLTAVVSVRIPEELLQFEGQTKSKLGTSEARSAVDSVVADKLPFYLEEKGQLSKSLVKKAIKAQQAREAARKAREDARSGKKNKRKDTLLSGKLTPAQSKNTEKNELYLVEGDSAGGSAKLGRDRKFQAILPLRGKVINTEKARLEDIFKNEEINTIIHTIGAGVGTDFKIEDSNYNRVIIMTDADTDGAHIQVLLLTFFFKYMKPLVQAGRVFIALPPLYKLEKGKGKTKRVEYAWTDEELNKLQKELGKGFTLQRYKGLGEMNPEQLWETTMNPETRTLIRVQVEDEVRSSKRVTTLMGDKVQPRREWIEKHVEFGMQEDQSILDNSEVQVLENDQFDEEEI

[3] = tested on: Staphylococcus aureus; assay: Antibacterial activity against Staphylococcus aureus clinical isolates incubated for 18 hrs by Mueller-Hinton broth based assay; assay type: functional

O=C(NC(=S)NNC(=O)c1cc2ccccc2[nH]1)c1ccccc1 was tested, and the IC50 [1] was greater than 50 µM, the IC50 [2] was greater than 10 µM and the MIC [3] was 8 µg/mL (≈ 23.6 µM).
